Experiment [1] deals with T1, GDP-loaded KRAS (1-169) G12C, C51S, C80L, C118S (Homo sapiens, UniProt P01116, C118S/C51S/C80L/G12C).
T1 construct: GDP-loaded KRAS (1-169) G12C, C51S, C80L, C118S
Description: Mass Spectrometry Reactivity Assay (MSRA): covalent adduct of compound and KRAS G12C, Percent Modification. To be noted: for MSRA (% modification) 5.0 μM 0.017 hr: 5.0 μM compound; for MSRA (% modification) 10 μM 0.50 hr: 10 μM compound. It is filed as binding. Here is the method: Mass Spectrometry Reactivity Assay (MSRA)
Compounds presented in the present invention covalently bind to KRAS G12C using MSRA to detect a covalent adduct of the exemplary compound and KRAS G12C.
GDP-loaded KRAS (1-169) G12C, C51S, C80L, C118S were diluted in the protein assay buffer 25 mM Hepes pH7.5, 200 mM NaCl, 5% glycerol to concentration of 5 μM and 20 μl of protein was transferred into 96-well plate. Initial compound stocks were generated at concentrations 100-fold higher that their desired assay concentrations. See K-Ras(G12C) inhibitors allosterically control GTP affinity and effector interactions; Ostrem J M, Peters U, Sos M L, Wells J A, Shokat K M; Nature. 2013, Nov. 28; 503(7477):548-51.
Exemplary compounds dissolved in DMSO were diluted 100-fold into solution containing 20 μl of 5 μM KRAS protein in the 96-well plate to initiate the reaction. Mosquito (TPP Lab tech) liquid handling robot was used to add compounds to protein solution. Typical final concentration of the compounds was 5 μM or 10 μM. The plates were placed on a shaker for 1 min at RT, sealed and incubated at room temperature for specified time period. 5 μl of reaction mix was added to 10 μl of 0.2% formic acid stop solution and mixed well. Typical end points were 1, 15, 30, and 60 min.
Data were collected using Waters Acquity H-class UPLC system/Xevo G2-XS TOF mass spectrometer. The protein was injected in their liquid phase onto a Bruker Microtrap protein column TR1/15109/03. The following buffers were used to set LC gradient: Buffer A: 0.2% formic acid H2O; B: 0.2% formic acid CAN. The protein was eluted from the column using the following LC Gradient: 0-0.4 min, 10% B to 30% B; 0.4 min-2.4 min, to 90% B, 2.5 min, 10% B, 3 min, 10% B. Initial data analysis was performed using MaxEnt software right after data acquisition.
The standard auto processing function was used to define percentage of unmodified and modified KRAS protein using MexEnt software right after data acquisition. The highest peak was defined as 100% while smaller peak as assigned the number defined by autoprocessing function. The percent of modification corresponding to modified with exemplary compound and unmodified KRAS GDP-loaded KRAS (1-169) G12C, C51S, C80L, C118S were exported to Xcel data analysis software.
The percent of modified protein at the defined concentration of exemplary compound was calculated using the following formula: % mod=Num of modified peak/Sum of modified+unmodified. The resultant value defined as Percent Modification (PM) and an increase in PM reflects that the specific compound is better than other compounds at specified compound concentration at a given time point.

A further experiment deals with KRAS G12C (Homo sapiens, UniProt P01116, G12C). Put plainly: Cell Activity Assay: accumulation of GDP-bound KRAS G12C in MIAPaCa-2 cells (Raf-1 RBD capture, MSD readout). It is filed as cell-based. Set-up: endogenous in cells; host or cells: MIAPaCa-2. Conditions: 6 hours, assay limit is 30.00. The protocol:
Compounds presented in the present invention lead to the accumulation of the GDP bound Ras upon treatment of human cancer cell line.
The accumulation of the GDP-bound KRAS G12C in cellular environment was measured based on the principle that KRAS G12C only binds to its downstream kinase; Raf-1 (MAP Kinase Kinase Kinase), when in its active-GTP bound state. In this state, Ras binded to a domain of Raf-1 kinase referred to as the Ras Binding Domain (RBD).
MIAPaCa-2 cells were grown in RPMI 1640 medium (Gibco 11875) supplemented with 10% fetal bovine serum and 1% penicillin/streptomycin. Cells were seeded in 96-well tissue culture plates at a density of 30,000 cells/well and allowed to attach for 16-24 hours. Test compounds were prepared as a 10 mM stock in DMSO and serially diluted in 100% DMSO using a 3-fold dilution scheme. An intermediate 5× concentrated plate in complete growth medium was made and 25 μl/well was added to the 100 μl of cells for a final concentration of 0.3% DMSO. Each concentration of exemplary compound was tested in duplicate. The negative control wells were cells with control inhibitor at 10 μM, and the positive control wells were cells without drugs, DMSO only. Plates were incubated for 6 hours at 37° C., 5% CO2. Following treatment, cells were washed 3× with ice-cold PBS and 115 μl/well ice-cold 1× Assay/Lysis. Buffer with protease inhibitors was added (25 mM HEPES, pH 7.5, 150 mM NaCl, 1% NP-40, 10 mM MgCl2, 1 mM EDTA, 2% Glycerol). Following lysis samples were frozen at −80° C.
Raf-1 RBD (LJIC-1988A1) was diluted to 100 ng/well in PBS and 5 μl/well was spot coated onto MSD high bind SECTOR plates (L15XB). Plates were incubated at room temperature for 1 hour on an orbital shaker. Plates were washed with PBS/0.05% Tween-20 and 50 μl/well of thawed lysate samples were added, followed by 50 μl of 1% MSD Blocker A in PBS/0.05 Tween-20 (R93BA). Plates were incubated for 1 hour on an orbital shaker and washed with PBS/0.05% Tween-20. 25 μl/well of Anti-pan-Ras Antibody (Cell Biolabs 244003) diluted 1:3000 was added in 1% MSD Blocker A solution and plates were incubated for 1 hour on an orbital shaker and washed with PBS/0.05% Tween-20. SULFO-TAG goat anti-mouse secondary antibody (MSD R32AC) was diluted 1:500 in MSD Blocker A solution and added at 25 μL/well. Plates were incubated for 1 hour on an orbital shaker and washed with PBS/0.05% Tween-20. 150 μl/well of Read Buffer T (MSD R92TC) diluted 1:3 in H2O was added and plates were read on a Meso Scale Discovery Sector Imager S600.
KRAS signal was normalized to maximum inhibition and DMSO control values, and IC50 values were generated using a 4 parameter fit of the dose response curve. The decrease in IC50 reflects that the exemplary compound lead to a higher level of accumulation of GDP-bound KRAS G12C than another exemplary compounds at specific timepoint of treatment of cancer cell line.

The source of these data is US10662204B2 (PFIZER INC., priority 2018, dated 2020).

In the case of `C=CC(=O)N1CCN(c2nc(O[C@@H]3CN(C)C[C@H]3CC)nc3c(Oc4c(Cl)c(F)cc5[nH]ncc45)nccc23)CC1` (racemic) [Example 21I, rac-1-[4-(8-[(5-chloro-6-fluoro-1H-indazol-4-yl)oxy]-2-{[(3S,4R)-4-ethyl-1-methyl-pyrrolidin-3-yl]oxy}pyrido [3,4-d]pyrimidin-4-yl)piperazin-1-yl]prop-2-en-1-one], the “MSRA (% modification) 5.0 μM 0.017 hr” value in experiment [1] stood at 42%. At KRAS G12C, this compound registered an IC50 of 0.094 µM. `C=CC(=O)N1CCN(c2nc(O[C@@H]3COC[C@H]3N(C)C)nc3c(Oc4c(Cl)c(F)cc5[nH]ncc45)nccc23)CC1` (racemic) [Example 23I, rac-1-[4-(8-[(5-chloro-6-fluoro-1H-indazol-4-yl)oxy]-2-{[(3S,4R)-4-(dimethyl-amino)oxolan-3-yl]oxy}pyrido [3,4-d]pyrimidin-4-yl)piperazin-1-yl]prop-2-en-1-one]: the “MSRA (% modification) 5.0 μM 0.017 hr” value in experiment [1] was determined as 12%. This compound also registered an IC50 against KRAS G12C of 0.348 µM.

For `C=CC(=O)N1CCN(c2nc(O[C@@H]3CN(C)C[C@H]3C)nc3c(Oc4c(Cl)c(F)cc5[nH]ncc45)nccc23)CC1` (racemic) [Example 24I, rac-1-[4-(8-[(5-chloro-6-fluoro-1H-indazol-4-yl)oxy]-2-{[(3S,4R)-1,4-dimethyl-pyrrolidin-3-yl]oxy}pyrido [3,4-d]pyrimidin-4-yl)piperazin-1-yl]prop-2-en-1-one], the “MSRA (% modification) 5.0 μM 0.017 hr” value in experiment [1] is 20%. In the case of `C=CC(=O)N1CCN(c2nc(O[C@H]3CN(C)C[C@H]3C)nc3c(Oc4c(Cl)c(F)cc5[nH]ncc45)nccc23)CC1` (racemic) [Example 25I, rac-1-[4-(8-[(5-chloro-6-fluoro-1H-indazol-4-yl)oxy]-2-{[(3S,4S)-1,4-dimethyl-pyrrolidin-3-yl]oxy}pyrido [3,4-d]pyrimidin-4-yl)piperazin-1-yl]prop-2-en-1-one], the “MSRA (% modification) 5.0 μM 0.017 hr” value in experiment [1] is listed as 6%.

For `C=CC(=O)N1CCN(c2nc(O[C@@H]3CN(C)C[C@@H]3OC)nc3c(Oc4c(Cl)c(F)cc5[nH]ncc45)nc(Cl)cc23)CC1` (racemic) [Example 26G, rac-1-[4-(6-chloro-8-[(5-chloro-6-fluoro-1H-indazol-4-yl)oxy]-2-{[(3R,4S)-4-methoxy-1-methylpyrrolidin-3-yl]oxy}pyrido[3,4-d]pyrimidin-4-yl)piperazin-1-yl]prop-2-en-1-one], the “MSRA (% modification) 5.0 μM 0.017 hr” value in experiment [1] came to 35%. The same compound yielded an IC50 at KRAS G12C of 0.195 µM. Take `C=CC(=O)N1CCN(c2nc(O[C@@H]3CCN(CCOC)C[C@H]3C)nc3c(Oc4c(Cl)c(F)cc5[nH]ncc45)nccc23)CC1` (racemic) [Example 27I, rac-1-[4-(8-[(5-chloro-6-fluoro-1H-indazol-4-yl)oxy]-2-{[(3R,4R)-1-(2-methoxy-ethyl)-3-methyl-piperidin-4-yl]oxy}pyrido [3,4-d]pyrimidin-4-yl)piperazin-1-yl]prop-2-en-1-one]: in experiment [1], the “MSRA (% modification) 5.0 μM 0.017 hr” value is 15%. `C=CC(=O)N1CCN(c2nc(O[C@@H]3CCN(C)C[C@H]3C)nc3c(Oc4c(Cl)c(F)cc5[nH]ncc45)nccc23)CC1` (racemic) [Example 29I, rac-1-[4-(8-[(5-chloro-6-fluoro-1H-indazol-4-yl)oxy]-2-{[(3R,4R)-1,3-dimethyl-piperidin-4-yl]oxy}pyrido [3,4-d]pyrimidin-4-yl)piperazin-1-yl]prop-2-en-1-one]: the “MSRA (% modification) 5.0 μM 0.017 hr” value in experiment [1] came to 16%.

As to `C=CC(=O)N1CCN(c2ncnc3c(Oc4c(Br)ccc5[nH]ncc45)cccc23)CC1` [Example 11C, 1-(4-(8-((5-bromo-1H-indazol-4-yl)oxy)quinazolin-4-yl)piperazin-1-yl)prop-2-en-1-one], in experiment [1], the “MSRA (% modification) 10 μM 0.50 hr” value was 26%. As for `C=CC(=O)N1CCN(c2ncnc3c(Oc4c(Br)ccc5[nH]ncc45)nccc23)CC1` [Example 15C, 1-(4-{8-[(5-bromo-1H-indazol-4-yl)oxy]pyrido[3,4-d]pyrimidin-4-yl}piperazin-1-yl)prop-2-en-1-one], the “MSRA (% modification) 10 μM 0.50 hr” value in experiment [1] came to 12%. On to `C=CC(=O)N1CCN(c2nc(OC3CN(C)CC34CC4)nc3c(Oc4c(Cl)c(F)cc5[nH]ncc45)nccc23)CC1` (stereo not shown) [Example 26I, 1-(4-{8-[(5-chloro-6-fluoro-1H-indazol-4-yl)oxy]-2-[(5-methyl-5-azaspiro [2.4]heptan-7-yl)oxy]pyrido [3,4-d]pyrimidin-4-yl}piperazin-1-yl)prop-2-en-1-one], for which, in experiment [1], the “MSRA (% modification) 5.0 μM 0.017 hr” value came out at 17%.

As for `C=CC(=O)N1CCN(c2nc(O[C@@H]3CN(C)C[C@H]3OC)nc3c(Oc4c(Cl)c(F)cc5[nH]ncc45)nccc23)C[C@@H]1C` [Example 37I, 1-[(2S)-4-(8-[(5-chloro-6-fluoro-1H-indazol-4-yl)oxy]-2-{[(3R,4R)-4-methoxy-1-methyl-pyrrolidin-3-yl]oxy}pyrido [3,4-d]pyrimidin-4-yl)-2-methyl-piperazin-1-yl]prop-2-en-1-one], in experiment [1], the “MSRA (% modification) 5.0 μM 0.017 hr” value is listed as 16%.

As for `C=CC(=O)N1CCN(c2nc(Oc3cc4n(n3)CCN(C)C4)nc3c(Oc4c(Cl)c(F)cc5[nH]ncc45)nccc23)CC1` [Example 45I, 1-(4-{8-[(5-chloro-6-fluoro-1H-indazol-4-yl)oxy]-2-[(5-methyl-4,5,6,7-tetrahydro-pyrazolo [1,5-a]pyrazin-2-yl)oxy]pyrido [3,4-d]pyrimidin-4-yl}piperazin-1-yl)prop-2-en-1-one], the “MSRA (% modification) 5.0 μM 0.017 hr” value in experiment [1] was determined as 7%. Consider `C=CC(=O)N1CCN(c2nc(Oc3nn(C)c4c3CCN(C)C4)nc3c(Oc4c(Cl)c(F)cc5[nH]ncc45)nccc23)CC1` [Example 47I, 1-(4-{8-[(5-chloro-6-fluoro-1H-indazol-4-yl)oxy]-2-[(1,6-dimethyl-4,5,6,7-tetrahydro-1H-pyrazolo [3,4-c]pyridin-3-yl)oxy]pyrido [3,4-d]pyrimidin-4-yl}piperazin-1-yl)prop-2-en-1-one], for which the “MSRA (% modification) 5.0 μM 0.017 hr” value in experiment [1] came out at 14%.

For orientation: IC50 means the point on the concentration scale where inhibition reaches its midpoint. Lower therefore signals greater potency.
